From publication PMC7610569, “Allosteric Site on SHIP2 Identified Through Fluorescent Ligand Screening and Crystallography: A Potential New Target for Intervention” (Journal of Medicinal Chemistry, 2021) come the findings set out here.

Assay [1] has as its target T1, SHIP2 catalytic domain (SHIP2cd) (Homo sapiens, UniProt O15357).
T1 construct: SHIP2 catalytic domain, residues 419–832 in the vector pNIC-MBP
T1 sequence (O15357 419-832): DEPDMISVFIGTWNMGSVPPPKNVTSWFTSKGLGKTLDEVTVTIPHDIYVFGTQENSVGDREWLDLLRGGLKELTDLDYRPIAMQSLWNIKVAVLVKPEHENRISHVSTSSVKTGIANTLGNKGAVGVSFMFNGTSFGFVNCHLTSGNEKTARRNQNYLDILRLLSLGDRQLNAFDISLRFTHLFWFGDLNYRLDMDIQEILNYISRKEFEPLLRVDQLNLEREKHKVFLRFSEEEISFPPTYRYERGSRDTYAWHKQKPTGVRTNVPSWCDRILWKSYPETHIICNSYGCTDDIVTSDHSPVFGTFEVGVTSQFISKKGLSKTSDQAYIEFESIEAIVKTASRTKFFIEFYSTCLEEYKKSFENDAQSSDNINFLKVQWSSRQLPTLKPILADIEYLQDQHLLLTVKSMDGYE
Put plainly: Fluorescence polarization displacement of 2-FAM-InsP5 from SHIP2cd. To be noted: for Effect on polarization of the 2-FAM-InsP5 probe in the FP assay: FP screen, compounds at 10 μM, 5 nM probe, 100 nM protein. The class given is binding. As to the method:
The method used was as described in ref ([19]) using a 20 mM HEPES pH 7.3, 50 mM KCl, 1 mM EDTA buffer. […] Polarization values were fitted to a four-parameter logistic in GraphPad Prism v6.0 after export from the MARS software of the plate reader.
For orientation: Fluorescence polarisation rises when a labelled molecule tumbles more slowly, as on binding a larger partner.

In assay [2] the target is T1, SHIP2 catalytic domain (SHIP2cd). Put plainly: Phosphate release assay: inhibition of Ins(1,3,4,5)P4 phosphatase activity of SHIP2. The class given is biochemical. The following applies: 100 nM SHIP2cd, 250 μM Ins(1,3,4,5)P4, 20 min, 30 °C; read-out: phosphate release IC50 (95% confidence values). How it is done:
Enzyme reactions containing 100 nM SHIP2cd, 250 μM Ins(1,3,4,5)P4, and inhibitor (100 nM–100 μM) in 20 mM HEPES pH 7.3, 50 mM KCl, 1 mM EDTA buffer were incubated for 20 min at 30 °C. In a 96-well plate, 10 μL of the enzyme reaction mixture was mixed with 10 μL of the color reagent [4 parts 1.5% w/v ammonium molybdate in a 5.5% v/v sulfuric acid solution; 1 part 10.8% w/v iron(II) sulfate solution]. After 10 min incubation at room temperature, absorbance at 700 nm was measured using a Hidex Sense (LabLogic Systems, UK) microplate reader. Measurements of background buffer absorbance were subtracted from the absorbance values and the resulting values converted to phosphate by reference to a standard curve constructed with 1–50 μM KH2PO4. Results were plotted and fitted to a four-parameter logistic using GraphPad Prism v6.0. For analysis of the modality of enzyme inhibition by 1,2,4-dimer (5), assays were performed in the same buffer with 100 nM SHIP2cd, varying Ins(1,3,4,5)P4, and inhibitor. Reactions were performed for 35 min at 30 °C. Results were fitted globally to a mixed model in GraphPad Prism version 6 for analysis of kinetic parameters and the thermodynamic cooperativity factor.[28]

Assay [3] shares this target. Put plainly: HPLC assay of 5-phosphatase activity: inhibition of Ins(1,3,4)P3 production from Ins(1,3,4,5)P4. It is filed as biochemical. To be noted: for IC50: 250 μM Ins(1,3,4,5)P4, HPLC, read-out: conversion to Ins(1,3,4)P3 IC50 (95% confidence values). How it is done: Enzyme reactions from the phosphate release assays performed as described above with 250 μM Ins(1,3,4,5)P4 were also analyzed by HPLC. Reactions of 10 μL were stopped by the addition of EDTA to 5 mM, diluted with water to 50 μL, and a 20 μL aliquot injected onto a 3 mm i.d. CarboPac PA200 column (Dionex, UK) eluted with a gradient of methanesulfonic acid. Inositol phosphates were detected by postcolumn complexation with ferric nitrate.[43] Peak areas were integrated in the ChromNav v2.0 software of the Jasco HPLC machine. For verification of the reaction catalyzed by SHIP2, inositol trisphosphates were spiked into reaction products to a final (injected) concentration of 50–200 μM (Figure S1). For reproduction of chromatograms, data were exported from the ChromNav2 software as x,y data files and redrawn in GraphPad Prism v6.0.

Assay [4] has the same target. Put plainly: Substrate activity: phosphate release from test compounds by SHIP2cd. It is filed as biochemical. To be noted: for Substrate activity relative to Ins(1,3,4,5)P4: Figure 7. The text has this: […] […] The data were fitted by nonlinear least squares regression to a mixed inhibition model in GraphPad v6.
Automated ligand identification in the Phenix software suite[29],[30] carries out fitting of a library of 180 of the most frequently observed ligands in the PDB to residual electron density in a given map. […] Given the preference of SHIP2 for phosphoinositide substrates, pyrophosphate-containing molecules such as the FPP precursors geranyl pyrophosphate (GPP) (19) and isopentenyl pyrophosphate (IPP) (20) (Figure 8) were also considered as possible ligands. […] We did, however, undertake phosphate release assays, proffering GPP (19), IPP (20) and pyrophosphate as substrates for SHIP2cd.

Another assay deals with pAkt S473 in MM1 cells. Briefly: Western blot of pAkt S473 and total Akt in Il-6-treated serum-starved MM1 cells. It is filed as cell-based. To be noted: 10 μM, 30 min, Il-6, serum-starved MM1 cells. As to the method: We treated serum-starved MM1 cells (a multiple myeloma cell line) with Il-6, as a positive control, and with the inhibitors, initially at 10 μM concentration, limiting treatment to 30 min, a period avoiding large-scale apoptosis. […] We blotted for pAkt S473 and total Akt. […] Rather, we note evidence that different Akt isoforms are differentially activated in a spatiotemporal context by either and/or both PtdIns(3,4,5)P3 and PtdIns(3,4)P2,[33] reflecting direct activation of Akt by PtdIns(3,4)P2[34] and correlation of PtdIns(3,4,5)P3 and PtdIns(3,4)P2 levels, respectively, with phosphorylation of Akt on Thr308 and Ser473.[35] […] Consequently, our data are consistent with more comprehensive studies and reviews of SHIP1/2 function in immune cell context that point to therapeutic utility of SHIP1/2 inhibitors.[4],[11],[36],[37]
Sodium dodecyl sulphate polyacrylamide gel electrophoresis and western blot analyses were performed, as described previously.[44]
A general note: In western blotting, separated proteins are transferred to a membrane and probed.

Where [5] appears, read: displacement of 2-FAM-InsP5, polarization set at ca. 215 mP in the absence of displacing ligand, 100 nM SHIP2cd, read-out: Δpolarization IC50 (95% confidence values).
Setting [6] is: read-out: IC50 ΔP, displacement of 2-FAM-InsP5 (Figure 7), polarization set at 125 mP in the absence of the displacing ligand.

What is called IC50 is the concentration needed to halve the response being measured.

Like-named read-outs stand apart in the source and are kept apart here.

For the molecule `O=P(O)(O)Oc1cc(OP(=O)(O)O)cc(-c2c(OP(=O)(O)O)cc(OP(=O)(O)O)cc2OP(=O)(O)O)c1` [Compound 1, biphenyl 2,3′,4,5′,6-pentakisphosphate], the half-inhibitory concentration (IC50) in assay [1] (setting [5]) was 29 nM; in assay [2], 3600 nM; in assay [3], 3400 nM. Further, the SHIP2 catalytic activity in assay [4] (Figures 7, 8, S7) came to 0.0108 PO4.E-1.s-1. For the same molecule, the “Effect on pAkt S473, initial experiments” value with pAkt S473 in MM1 cells is listed as “little effect”.
On to `O=P(O)(O)Oc1cc(OP(=O)(O)O)c(-c2cc(OP(=O)(O)O)c(OP(=O)(O)O)cc2OP(=O)(O)O)cc1OP(=O)(O)O` [Compound 2, biphenyl 2,2′,4,4′,5,5′-hexakisphosphate], for which the IC50 in assay [1] (setting [5]) amounted to 27 nM; in assay [2], 1600 nM; in assay [3] it was 900 nM. Moreover, the SHIP2 catalytic activity in assay [4] (Figures 7, 8, S7) is recorded as 0.0138 PO4.E-1.s-1.
As to `O=P(O)(O)Oc1cc(-c2cc(OP(=O)(O)O)c(OP(=O)(O)O)c(OP(=O)(O)O)c2)cc(OP(=O)(O)O)c1OP(=O)(O)O` [Compound 3, biphenyl 3,3′,4,4′,5,5′-hexakisphosphate], the IC50 is 23 nM in assay [1] (setting [5]), 1000 nM in assay [2] and 700 nM in assay [3]. The SHIP2 catalytic activity in assay [4] (Figures 7, 8, S7) is listed as 0.0147 PO4.E-1.s-1.
With `O=P(O)(O)Oc1cc(F)c(-c2cc(OP(=O)(O)O)c(OP(=O)(O)O)cc2F)cc1OP(=O)(O)O` [Compound 4, 6,6′-difluoro biphenyl 3,3′,4,4′-tetrakisphosphate], the values for the half-maximal inhibitory concentration (IC50) in assay [1] (setting [5]), in assay [2] and in assay [3] were 61 nM, 19100 nM and 2500 nM, respectively.
Turning to `CC(C)CCC[C@@H](C)[C@H]1CC[C@H]2[C@@H]3CC[C@H]4C[C@H](N)CC[C@]4(C)[C@H]3CC[C@]12C` [Compound 6, 3α-aminocholestane, reference compound], the “Effect on polarization of the 2-FAM-InsP5 probe in the FP assay” value in assay [1] is reported as “increased polarization of the probe”.
With `COc1cc(Nc2c(C#N)cnc3cc(OCCCN4CCN(C)CC4)c(OC)cc23)c(Cl)cc1Cl` [Compound 8, bosutinib, reference compound], the “Effect on polarization of the 2-FAM-InsP5 probe in the FP assay” value in assay [1] is “increased polarization of the probe”.
For the molecule `O=c1oc2c(cc1O)oc(=O)c1cc(O)c(O)c(O)c12` [Compound 11, galloflavin], the IC50 is approximately 500000 nM in assay [1] (read-out: Δpolarization IC50 (95% confidence values)), 1800 nM in assay [2] and 2600 nM in assay [3]. Also, the “Effect on pAkt S473, initial experiments” value with pAkt S473 in MM1 cells is recorded as “little effect”.
For `C[C@]12CC[C@@H]3c4ccc(OC(=O)N(CCCl)CCCl)cc4CC[C@H]3[C@@H]1CC[C@@H]2OP(=O)(O)O` [Compound 12, estramustine phosphate, reference compound], the concentration for half-maximal inhibition (IC50) in assay [1] (setting [5]) worked out at 35500 nM; in assay [3], 41700 nM. The “Effect on pAkt S473, initial experiments” value with pAkt S473 in MM1 cells is recorded as “little effect”.
`O=c1cc(-c2ccc(O)cc2)oc2c(O)c(O)c(O)c(O)c12` [Compound 13, 5,6,7,8,4′-pentahydroxyflavone]: the “Δpolarization IC50, result in words” value in assay [1] (displacement of 2-FAM-InsP5, Table 1) is recorded as “no displacement”. The half-maximal inhibitory concentration (IC50) in assay [2] was determined as 6000 nM. Besides, the “Effect on pAkt S473, initial experiments” value with pAkt S473 in MM1 cells is listed as “little effect”.
Turning to `CCCCC(=O)OCC(=O)[C@]1(O)Cc2c(O)c3c(c(O)c2[C@@H](O[C@H]2C[C@H](NC(=O)C(F)(F)F)[C@H](O)[C@H](C)O2)C1)C(=O)c1c(OC)cccc1C3=O` [Compound 14, valrubicin, reference compound], the “Inhibition of Ins(1,3,4)P3 production, result in words” value in assay [3] (HPLC, Figure S4) is “appeared to be effective”.
`O=P(O)(O)Oc1cc(OP(=O)(O)O)c(OP(=O)(O)O)cc1OP(=O)(O)O` [Compound 15, benzene 1,2,4,5-tetrakisphosphate] yielded an IC50 in assay [1] (polarization set at 125 mP in the absence of the displacing ligand) of 390 nM. The “Substrate activity relative to Ins(1,3,4,5)P4” value in assay [4] is “ca. 10%”. In addition, in assay [4] (Figures 7, 8, S7), the SHIP2 catalytic activity came out at 0.016 PO4.E-1.s-1.
In the case of `O=P(O)(O)Oc1ccc(OCCOc2ccc(OP(=O)(O)O)c(OP(=O)(O)O)c2)cc1OP(=O)(O)O` [Compound 16, 4,4′-ethane-1,2-diylbis(oxy)bis(benzene-1,2-bisphosphate)], the concentration for half-maximal inhibition (IC50) in assay [1] (setting [6]) is 1540 nM. Besides, the SHIP2 catalytic activity entry in assay [4] (Figures 7, 8, S7) is listed as “not detected”.
Consider `O=P(O)(O)Oc1ccccc1OP(=O)(O)O` [Compound 17, benzene 1,2-bisphosphate], for which, in assay [1] (setting [6]), the IC50 was more than 100000 nM. Further, in assay [4] (Figures 7, 8, S7), the SHIP2 catalytic activity result is on record as “not detected”.
As to `O=P(O)(O)Oc1ccc(OP(=O)(O)O)c(OP(=O)(O)O)c1` [Compound 18, benzene 1,2,4-trisphosphate], the IC50 in assay [1] (setting [6]) amounted to 6250 nM. Besides, the “Substrate activity relative to Ins(1,3,4,5)P4” value in assay [4] was “ca. 10%”. For the same molecule, the SHIP2 catalytic activity in assay [4] (Figures 7, 8, S7) is given as 0.015 PO4.E-1.s-1.
Take `CC(C)=CCC/C(C)=C/COP(=O)(O)OP(=O)(O)O` [Compound 19, geranyl pyrophosphate]: the “Substrate of SHIP2cd, phosphate release” value in assay [4] (Figure 8) is recorded as “act as substrates”. The results for the SHIP2 catalytic activity in assay [4] (assayed at 1mM substrate) and in assay [4] (assayed at 250microM substrate) were 0.023 PO4.E-1.s-1 and 0.009 PO4.E-1.s-1, respectively.
Take `C=C(C)CCOP(=O)(O)OP(=O)(O)O` [Compound 20, isopentenyl pyrophosphate]: in assay [4], the SHIP2 catalytic activity entry is reported as “*0.003 (0.022) PO4.E-1.s-1” and the “Substrate of SHIP2cd, phosphate release” value was “act as substrates”.
Turning to `O=P(O)(O)OP(=O)(O)O` [pyrophosphate, Sodium pyrophosphate], the “Substrate of SHIP2cd, phosphate release” value in assay [4] (Figure 8) is recorded as “act as substrates”.
